Reference: PubChem BioAssay AID2423 (Broad Institute, 2010)
pEC50: −log10 of the molar value. Results filed as inconclusive are left out. Activity calls are given as the source filed them. The rule behind the calls is not given here.

System: C. albicans CaCi-8 + fluconazole, Alamar Blue growth, 48 h
Test: resistant C. albicans growth inhibition with fluconazole, dose response, CaCi-8 strain, Alamar Blue fluorescence (AID 2423)

Row | SMILES | pEC50 | EC50
1 | OCc1ccc(O)c2ncccc12 | 4.91 | –
2 | O=C(/C(=N/N=C/c1ccc(O)c(O)c1O)c1ccccc1)c1ccccc1 | 5.64 | –
3 | Cc1cccc(-n2nc(C(=O)c3ccco3)cc(-c3nc4ccccc4[nH]3)c2=N)c1 | 5.22 | –
4 | CC(=O)c1cnc2cc(-c3cccc(Br)c3)nn2c1C | – | > 15 µM (inactive)
5 | CCOc1ccc2c(c1)OC(c1ccc(C)cc1)(C(F)(F)F)NC2=O (stereo not drawn) | – | > 16 µM (inactive)
6 | O=C(CNc1ccccc1F)N/N=C/C1CC=CCC1 (stereo not drawn) | – | > 16 µM (inactive)
7 | CC(C)(C)C(=O)NC(=S)NNC(=O)c1ccc(-c2ccccc2)cc1 | > 6.92 | –
8 | CCc1ccc(/C=C2\SC(=S)N(CCCC(=O)Nc3ccccc3C(=O)O)C2=O)cc1 | 6.52 | –
9 | Cc1cc(NC(=O)COC(=O)[C@@H](NS(=O)(=O)c2ccc(Br)cc2)C(C)C)no1 | – | > 15 µM (inactive)
10 | CN(C)c1cc[n+](CC(=O)c2ccc(-c3ccccc3)cc2)cc1 | 5.30 | –
11 | CN(C)S(=O)(=O)Oc1cccc(C(=O)Nc2ccc(Cl)c(Cl)c2)c1 | 6.15 | –
12 | COc1ccccc1NC(=O)CN1CCN(c2ccccc2OC)CC1 | – | > 16 µM (inactive)
13 | Cc1ccccc1-n1c(=O)c(C#N)cc2c(=O)n3ccccc3nc21 | – | > 16 µM (inactive)
14 | CCOC(=O)N1CCN(Cc2ccc(O)c3ncccc23)CC1 | 4.90 | –
15 | O=C1C2CCCN2C(c2ccccc2)N1c1ccccn1 (stereo not drawn) | – | > 16 µM (inactive)
16 | CCCNC(=O)C12CCC(C)(c3nc4cc(C)c(C)cc4nc31)C2(C)C (stereo not drawn) | – | > 15 µM (inactive)
17 | Nc1cc(N)nc(SCc2cccc(F)c2)n1 | – | > 15 µM (inactive)
18 | CC(C)Cc1nc2oc3c(=O)[nH]cnc3c2c2c1CCCC2 | 6.53 | –
19 | CC[n+]1c(/C=C2\Sc3ccccc3N2C)ccc2cccc(C)c21 | > 6.92 | –
20 | COc1ccc(C2=NN(c3nc4ccccc4s3)C(=O)C2)cc1 | 5.25 | –
21 | CCOC(=O)c1ccc(Oc2nc(NC(C)(C)C)nc(N(C)C)n2)cc1 | 4.88 | –
22 | O=c1c2ccccc2nc(N/N=C/c2c(O)ccc3ccccc23)n1O | 6.62 | –

Row | SMILES | pEC50 | EC50
23 | CCn1c(C)nc2cc(C(=O)N/N=C/c3ccc(O)c(O)c3O)ccc21 | 6.00 | –
24 | Cc1cc(C)n(-c2nc(NCCN(C)C)c3c4c(sc3n2)CCCC4)n1 | 5.29 | –
25 | O=C(N/N=C\C=C\c1ccc([N+](=O)[O-])o1)c1cccs1 | – | > 16 µM (inactive)
26 | CC(C)(C)c1ccc(C(=O)NC(=S)NNC(=O)COc2ccccc2)cc1 | 5.68 | –
27 | Cc1cccc(NC(=S)NNC(=O)c2cc3c(s2)CCC(C)C3)c1C (stereo not drawn) | 5.86 | –
28 | C=C(C)CNC(=S)N/N=C1\CCCCc2ccccc21 | – | > 16 µM (inactive)
29 | CC[C@@H]1C=CC=CC[C@H](C)[C@@H](O)[C@@H](C)C(=O)[C@H](C)[C@@H](O)[C@H](C)C(=O)[C@H](C)[C@@H](O)[C@H](C)C=CC(=O)O[C@H]2[C@@H](C)[C@@H](CC1)O[C@@]1(CC[C@@H](C)[C@@H](C[C@H](C)O)O1)[C@@H]2C | 6.18 | –
30 | Nc1nsc2ccccc12 | – | > 15 µM (inactive)
31 | Cc1ccc(N=Cc2cc(Cc3ccccc3Cl)cc([N+](=O)[O-])c2O)c(O)c1 | – | > 15 µM (inactive)
32 | CCOC(=O)c1ccccc1OCc1cc(/C=N/n2cnnc2)ccc1OC | – | > 15 µM (inactive)
33 | Cc1noc(NC(=O)c2ccc(Cl)c(Cl)c2)c1Cl | – | > 15 µM (inactive)
34 | C#CC[N+](C)(C)CCCCCCCCCCCC | 5.05 | –
35 | CC(C)COCc1ccc(O)c2ncccc12 | 5.83 | –
36 | Oc1ccc(N=Nc2ccc3c(c2)OCCO3)c2ncccc12 | 6.15 | –
37 | O=C(Nc1cccc(-c2cn3c(n2)SCC3)c1)c1ccc(Br)o1 | 5.57 | –
38 | Cc1nc2ccccc2cc1OCc1ccc(F)cc1 | 6.04 | –
39 | CCC(C)(C)c1ccc(OCCCC[n+]2ccc(C)cc2)c(C(C)(C)CC)c1 | – | > 16 µM (inactive)
40 | O=C(NC1CCCCC1)c1cc([N+](=O)[O-])[nH]n1 | 5.95 | –
41 | O=[N+]([O-])c1cc(CN2CCN(c3ccccc3)CC2)c(O)c2ncccc12 | 6.47 | –
42 | CCCCCc1ccc(-c2ccc(/C=C/C(=O)O)cc2)nc1 | 6.02 | –
43 | O=C(CSc1nc(-c2ccccc2)cs1)Nc1nccs1 | – | > 16 µM (inactive)
